Laboratory results reported in patent US12471596B2 (priority 2019, dated 2025).

Tested on: Phytophthora infestans
Test: microbe, parasite or virus in culture
Assay type: cell-based
Conditions: in Secale cereale, 168 h, read-out: control compared to the untreated check

Row | SMILES | inhibition of growth at 30 ppm [%]
1 | COc1cncnc1OCC(=O)N1CCC(c2nc(C3=NOC(c4c(Cl)cc(Cl)cc4Cl)C3)cs2)CC1 (stereo not drawn) [Compound 75, 2-((5-methoxypyrimidin-4-yl)oxy)-1-(4-(4-(5-(2,4,6-trichlorophenyl)-4,5-dihydroisoxazol-3-yl)thiazol-2-yl)piperidin-1-yl)ethan-1-one] | ≥ 70
2 | COc1nc(OC)nc(OCC(=O)N2CCC(c3nc(C4=NOC(c5c(F)cccc5F)C4)cs3)CC2)n1 (stereo not drawn) [Compound 109, 1-(4-(4-(5-(2,6-difluorophenyl)-4,5-dihydroisoxazol-3-yl)thiazol-2-yl)piperidin-1-yl)-2-((4,6-dimethoxy-1,3,5-triazin-2-yl)oxy)ethan-1-one] | ≥ 70
3 | COc1cncnc1OCC(=O)N1CCC(c2nc(C3=NOC(c4c(Cl)ccc(F)c4F)C3)cs2)CC1 (stereo not drawn) [Compound 81, 1-(4-(4-(5-(6-chloro-2,3-difluorophenyl)-4,5-dihydroisoxazol-3-yl)thiazol-2-yl)piperidin-1-yl)-2-((5-methoxypyrimidin-4-yl)oxy)ethan-1-one] | ≥ 70
4 | CS(=O)(=O)Oc1ccc(F)c2c1COC(c1csc(C3CCN(C(=O)COc4nccnc4Cl)CC3)n1)OC2 (stereo not drawn) [Compound 155, 3-(2-(1-(2-((3-chloropyrazin-2-yl)oxy)acetyl)piperidin-4-yl)thiazol-4-yl)-9-fluoro-1,5-dihydrobenzo[e][1,3]dioxepin-6-yl methanesulfonate] | ≥ 70
5 | O=C(COc1cnc(C(F)(F)F)cn1)N1CCC(c2nc(C3=NOC(c4c(Cl)cccc4C(F)(F)F)C3)cs2)CC1 (stereo not drawn) [Compound 69, 1-(4-(4-(5-(2-chloro-6-(trifluoromethyl)phenyl)-4,5-dihydroisoxazol-3-yl)thiazol-2-yl)piperidin-1-yl)-2-((5-(trifluoromethyl)pyrazin-2-yl)oxy)ethan-1-one] | ≥ 70
6 | COc1nccnc1OCC(=O)N1CCC(c2nc(C3=NOC(c4c(Cl)cccc4C(F)(F)F)C3)cs2)CC1 (stereo not drawn) [Compound 65, 1-(4-(4-(5-(2-chloro-6-(trifluoromethyl)phenyl)-4,5-dihydroisoxazol-3-yl)thiazol-2-yl)piperidin-1-yl)-2-((3-methoxypyrazin-2-yl)oxy)ethan-1-one] | ≥ 70
7 | O=C(COc1nccc(C(F)(F)F)n1)N1CCC(c2nc(C3=NOC(c4c(F)cccc4F)C3)cs2)CC1 (stereo not drawn) [Compound 50, 1-(4-(4-(5-(2,6-difluorophenyl)-4,5-dihydroisoxazol-3-yl)thiazol-2-yl)piperidin-1-yl)-2-((4-(trifluoromethyl)pyrimidin-2-yl)oxy)ethan-1-one] | ≥ 70
8 | O=C(COc1cc(C(F)(F)F)ncn1)N1CCC(c2nc(C3=NOC(c4c(Cl)cc(Cl)cc4Cl)C3)cs2)CC1 (stereo not drawn) [Compound 11, 1-(4-(4-(5-(2,4,6-trichlorophenyl)-4,5-dihydroisoxazol-3-yl)thiazol-2-yl)piperidin-1-yl)-2-((6-(trifluoromethyl)pyrimidin-4-yl)oxy)ethan-1-one] | ≥ 70
9 | COc1cncnc1OCC(=O)N1CCC(c2nc(C3=NOC(c4c(F)cccc4Cl)C3)cs2)CC1 (stereo not drawn) [Compound 74, 1-(4-(4-(5-(2-chloro-6-fluorophenyl)-4,5-dihydroisoxazol-3-yl)thiazol-2-yl)piperidin-1-yl)-2-((5-methoxypyrimidin-4-yl)oxy)ethan-1-one] | ≥ 70
10 | N#Cc1cccc(Cl)c1C1CC(c2csc(C3CCN(C(=O)COc4cncc(C(F)(F)F)n4)CC3)n2)=NO1 (stereo not drawn) [Compound 56, 3-chloro-2-(3-(2-(1-(2-((6-(trifluoromethyl)pyrazin-2-yl)oxy)acetyl)piperidin-4-yl)thiazol-4-yl)-4,5-dihydroisoxazol-5-yl)benzonitrile] | ≥ 70
11 | O=C(COc1nccc(C(F)(F)F)n1)N1CCC(c2nc(C3=NOC(c4c(Cl)ccc(F)c4F)C3)cs2)CC1 (stereo not drawn) [Compound 70, 1-(4-(4-(5-(6-chloro-2,3-difluorophenyl)-4,5-dihydroisoxazol-3-yl)thiazol-2-yl)piperidin-1-yl)-2-((4-(trifluoromethyl)pyrimidin-2-yl)oxy)ethan-1-one] | ≥ 70
12 | CS(=O)(=O)Oc1cccc(Cl)c1C1CC(c2csc(C3CCN(C(=O)COc4ccnc(C(F)(F)F)n4)CC3)n2)=NO1 (stereo not drawn) [Compound 21, 3-chloro-2-(3-(2-(1-(2-((2-(trifluoromethyl)pyrimidin-4-yl)oxy)acetyl)piperidin-4-yl)thiazol-4-yl)-4,5-dihydroisoxazol-5-yl)phenyl methanesulfonate] | ≥ 70
13 | CS(=O)(=O)Oc1ccc(F)c2c1COC(c1csc(C3CCN(C(=O)COc4ccnc(C(F)(F)F)n4)CC3)n1)OC2 (stereo not drawn) [Compound 156, 9-fluoro-3-(2-(1-(2-((2-(trifluoromethyl)pyrimidin-4-yl)oxy)acetyl)piperidin-4-yl)thiazol-4-yl)-1,5-dihydrobenzo[e][1,3]dioxepin-6-yl methanesulfonate] | ≥ 70
14 | COc1cncnc1OCC(=O)N1CCC(c2nc(C3=NOC(c4c(F)cccc4F)C3)cs2)CC1 (stereo not drawn) [Compound 76, 1-(4-(4-(5-(2,6-difluorophenyl)-4,5-dihydroisoxazol-3-yl)thiazol-2-yl)piperidin-1-yl)-2-((5-methoxypyrimidin-4-yl)oxy)ethan-1-one] | ≥ 70
15 | CSc1nccnc1OCC(=O)N1CCC(c2nc(C3=NOC(c4c(Cl)cccc4C(F)(F)F)C3)cs2)CC1 (stereo not drawn) [Compound 143, 1-(4-(4-(5-(2-chloro-6-(trifluoromethyl)phenyl)-4,5-dihydroisoxazol-3-yl)thiazol-2-yl)piperidin-1-yl)-2-((3-(methylthio)pyrazin-2-yl)oxy)ethan-1-one] | ≥ 70
16 | O=C(COc1ccc(C(F)(F)F)nn1)N1CCC(c2nc(C3=NOC(c4c(Cl)cccc4C(F)(F)F)C3)cs2)CC1 (stereo not drawn) [Compound 66, 1-(4-(4-(5-(2-chloro-6-(trifluoromethyl)phenyl)-4,5-dihydroisoxazol-3-yl)thiazol-2-yl)piperidin-1-yl)-2-((6-(trifluoromethyl)pyridazin-3-yl)oxy)ethan-1-one] | ≥ 70
17 | COc1cncnc1OCC(=O)N1CCC(c2nc(C3=NOC(c4c(Cl)cccc4Cl)C3)cs2)CC1 (stereo not drawn) [Compound 73, 1-(4-(4-(5-(2,6-dichlorophenyl)-4,5-dihydroisoxazol-3-yl)thiazol-2-yl)piperidin-1-yl)-2-((5-methoxypyrimidin-4-yl)oxy)ethan-1-one] | ≥ 70
18 | COc1nc(OC)nc(OCC(=O)N2CCC(c3nc(C4=NOC(c5c(F)cccc5Cl)C4)cs3)CC2)n1 (stereo not drawn) [Compound 98, 1-(4-(4-(5-(2-chloro-6-fluorophenyl)-4,5-dihydroisoxazol-3-yl)thiazol-2-yl)piperidin-1-yl)-2-((4,6-dimethoxy-1,3,5-triazin-2-yl)oxy)ethan-1-one] | ≥ 70
19 | O=C(COc1nccc(C(F)(F)F)n1)N1CCC(c2nc(C3=NOC(c4c(F)cccc4Cl)C3)cs2)CC1 (stereo not drawn) [Compound 48, 1-(4-(4-(5-(2-chloro-6-fluorophenyl)-4,5-dihydroisoxazol-3-yl)thiazol-2-yl)piperidin-1-yl)-2-((4-(trifluoromethyl)pyrimidin-2-yl)oxy)ethan-1-one] | ≥ 70
20 | O=C(COc1cncc(C(F)(F)F)n1)N1CCC(c2nc(C3=NOC(c4c(Cl)cccc4Cl)C3)cs2)CC1 (stereo not drawn) [Compound 55, 1-(4-(4-(5-(2,6-dichlorophenyl)-4,5-dihydroisoxazol-3-yl)thiazol-2-yl)piperidin-1-yl)-2-((6-(trifluoromethyl)pyrazin-2-yl)oxy)ethan-1-one] | ≥ 70
21 | COc1nccnc1OCC(=O)N1CCC(c2nc(C3=NOC(c4c(Cl)cc(Cl)cc4Cl)C3)cs2)CC1 (stereo not drawn) [Compound 24, 2-((3-methoxypyrazin-2-yl)oxy)-1-(4-(4-(5-(2,4,6-trichlorophenyl)-4,5-dihydroisoxazol-3-yl)thiazol-2-yl)piperidin-1-yl)ethan-1-one] | ≥ 70
22 | COc1ncc(OCC(=O)N2CCC(c3nc(C4=NOC(c5c(Cl)cccc5C(F)(F)F)C4)cs3)CC2)cn1 (stereo not drawn) [Compound 137, 1-(4-(4-(5-(2-chloro-6-(trifluoromethyl)phenyl)-4,5-dihydroisoxazol-3-yl)thiazol-2-yl)piperidin-1-yl)-2-((2-methoxypyrimidin-5-yl)oxy)ethan-1-one] | ≥ 70
23 | COc1cncnc1OCC(=O)N1CCC(c2nc(C3=NOC(c4c(Cl)cccc4OS(C)(=O)=O)C3)cs2)CC1 (stereo not drawn) [Compound 72, 3-chloro-2-(3-(2-(1-(2-((5-methoxypyrimidin-4-yl)oxy)acetyl)piperidin-4-yl)thiazol-4-yl)-4,5-dihydroisoxazol-5-yl)phenyl methanesulfonate] | ≥ 70
24 | CS(=O)(=O)Oc1cccc(Cl)c1C1CC(c2csc(C3CCN(C(=O)COc4nccc(C(F)(F)F)n4)CC3)n2)=NO1 (stereo not drawn) [Compound 46, 3-chloro-2-(3-(2-(1-(2-((4-(trifluoromethyl)pyrimidin-2-yl)oxy)acetyl)piperidin-4-yl)thiazol-4-yl)-4,5-dihydroisoxazol-5-yl)phenyl methanesulfonate] | ≥ 70
25 | COc1ncc(OCC(=O)N2CCC(c3nc(C4=NOC(c5c(F)cccc5Cl)C4)cs3)CC2)cn1 (stereo not drawn) [Compound 132, 1-(4-(4-(5-(2-chloro-6-fluorophenyl)-4,5-dihydroisoxazol-3-yl)thiazol-2-yl)piperidin-1-yl)-2-((2-methoxypyrimidin-5-yl)oxy)ethan-1-one] | ≥ 70
26 | COc1nc(OC)nc(OCC(=O)N2CCC(c3nc(C4=NOC(c5c(Cl)cccc5OS(C)(=O)=O)C4)cs3)CC2)n1 (stereo not drawn) [Compound 107, 3-chloro-2-(3-(2-(1-(2-((4,6-dimethoxy-1,3,5-triazin-2-yl)oxy)acetyl)piperidin-4-yl)thiazol-4-yl)-4,5-dihydroisoxazol-5-yl)phenyl methanesulfonate] | ≥ 70
27 | COc1nc(OC)nc(OCC(=O)N2CCC(c3nc(C4=NOC(c5c(Cl)cccc5Cl)C4)cs3)CC2)n1 (stereo not drawn) [Compound 106, 1-(4-(4-(5-(2,6-dichlorophenyl)-4,5-dihydroisoxazol-3-yl)thiazol-2-yl)piperidin-1-yl)-2-((4,6-dimethoxy-1,3,5-triazin-2-yl)oxy)ethan-1-one] | ≥ 70
